Values quoted from earlier work in US4681764A, “Porous and spherical carbonaceous product” (Kureha Kagaku Kogyo Kabushiki Kaisha, priority 1979, dated 1987).

Conditions: in vivo

oxidized starch
stimulation of the intestinal wall: side-reaction of stimulating the intestinal wall
